Assay results as given in patent US20250011869A1, “TLR3 INHIBITORS FOR USE IN THE TREATMENT OF DISEASES ASSOCIATED WITH CARDIOVASCULAR CALCIFICATION” (priority 2021, published 2025).

Key:
[1] = test system: VICs; assay: Calcification assay of VICs in osteogenic medium (Alizarin Red S, alkaline phosphatase); format: cell-based, human; settings: VICs in osteoblastic medium
Experimental: For functional evaluation of osteoblastic activity, VICs were subjected to a calcification assay. Cells were cultured in osteogenic medium including 10 mmol/L beta-glycerophosphate, 10 nmol/L vitamin D3, and 10 nmol/L dexamethasone as described previously^4. The medium was changed every three days. Subsequently, supernatant was analyzed for alkaline phosphatase activity using the commercially available alkaline phosphatase assay kit (Abcam, Cambridge, UK). After careful rinsing with PBS, cells were fixed with 4% paraformaldehyde, washed with distilled water and Alizarin Red S staining solution (Alfa Aesar, Haverhill, MA) was added upon the fixed cells for 20 minutes at room temperature (RT). Imaging of the staining was performed using a Zeiss Axioplan 2 microscope (Zeiss, Oberkochen, Germany). Images were processed using Adobe Photoshop CS5.1 for Mac (Adobe Systems Inc., San Jose, CA, USA) and analyzed with ImageJ software (National Institutes of Health, Bethesda, […]).

[2] = test system: TLR3-RUNX2 pathway; assay: Immunoblot of human dermal fibroblasts for the TLR3-RUNX2 pathway; format: cell-based; settings: wild type and empty vector control cells; 5 μg/ml, 6 h
Excerpt: (§1) Human dermal fibroblasts WT and Tlr3^−/− were kindly provided by the Jean-Laurent Casanova group and cultivated in DMEM with 4.5 g/L glucose (Lonza, Basel, Switzerland), 10% FCS (Sigma, St. Louis, MO), penicillin, streptomycin and L-Glutamine. Human dermal fibroblasts CTR cells were provided by the Villunger group and cultivated in DMEM with 4.5 g/L glucose (Lonza, Basel, Switzerland), 10% FCS (Sigma, St. Louis, MO), penicillin, streptomycin and L-Glutamine.
(§2) All cells were cultivated under standard conditions (37° C., supplied with 5% CO2). Passaging of the cells was performed at 70-90% confluency, and cells were only used until passage 7 as described previously^6. Polyinosinic: polycytidylic acid (Poly(I:C); Invivogen, San Diego, CA) was used to stimulate cells at a concentration of either 20 μg/mL or 5 μg/ml, depending on the assay. For blockade of TLR3, the commercially available dsRNA/TLR3 inhibitor ((R)-2-(3-Chloro-6-fluorobenzo [b] thiophene-2-carboxamido)-3-phenyl-propanoic acid) was used (Merck, Darmstadt, Germany) at a concentration of 1 μg/ml as described previously^1,7. LY294002 (Invivogen, San Diego, CA), a PI3K inhibitor, was used at a concentration of 10 μM. For blockade of IFNAR1, a specific blocking antibody (Invitrogen, Carlsbad, CA) was used at a concentration of 4 μg/ml. A stable HEK (human embryonic kidney) reporter cell line (TLR3/ISRE LUCPorter; Imgenex, USA) was purchased for luminometer assay experiments. Cells were cultivated according to the manufacturer's protocol in DMEM with 4.5 g/L glucose (Lonza, Switzerland), 10% FCS (Sigma, St. Louis, MO), penicillin/streptomycin, and 4 mM L-glutamine and […] puromycin (Gibco, USA) as selection agent. Reporter experiments were performed as described previously^8. For the protein expression SF21 cells were purchased at ThermoFisher (#11497013) and cultivated in Gibco™ Sf-900™ SFM supplemented with penicillin, streptomycin and L-Glutamine. In vitro stretch was applied using a Flexcell bioreactor (Flexcell International Corporation, Burlington, NC) applying 15% cyclic strain as described previously^9.
Protein from tissue or cell lysates was extracted using a Radioimmunoprecipitation Assay Lysis Puffer (150 mM NaCl, 1% NP-40, 0.5% Sodium Deoxycholate, 0.1% SDS and 50 mM Tris (pH 8,0)). For the extraction of nuclear or cytosolic proteins the NE-PER™ Nuclear and Cytoplasmic Extraction Reagents Kit (ThermoScientific, #78835) was used.
Protein was thereafter separated on SDS-polyacrylamide gels of different percentages and transferred to nitrocellulose membranes as described previously^18. After blocking with either 5% BSA in TBS 0.1% Tween, 5% milk in TBS 0.1% Tween or StartingBlock™ (TBS) Blocking buffer (ThermoScientific, #37542) membranes were incubated with primary antibodies listed in Table 2.

[3] = test system: VICs; assay: RNA sequencing of VICs vs human osteoblasts; format: cell-based; settings: Poly(I:C) 20 μg/mL, 72 h
Experimental: Total-RNA was isolated from five samples (VICs, cultured in calcification media and treated either 72 h with 20 μg/ml Poly(I:C), untreated controls, as well as human osteoblasts) and submitted to transcriptome analysis for the purpose of gene-expression profiling. For the RNA sequencing analysis in FIG. 5 the 2100 Bioanalyzer and RNA 6000 Nano LabChip kits (Agilent Technologies) was used to check for RNA integrity (all RINs >9). The TruSeq® Stranded mRNA HT technology was used for library preparation according to manufacturer's protocol and Illumina NextSeq® 500 1×75 bp single end sequencing was performed at the IMGM® laboratories (Martinsried, Germany). The RNA sequencing analysis in Figure S3 was performed at Novogene (UK) Co. using the NovaSeq 600 PE150.
All primary sequencing analyses were performed using CLC Genomics Workbench (9.5.3) including sequence QC and mapping to the human reference genome (GRCh38.p7). Differentially expression analyses were performed on raw count data and using an exact test based on negative binomial distribution (edgeR version 3.4.0) 10. P-values were adjusted according to the Benjamini-Hochberg method based on the false discovery rate (FDR). Only genes with at least four-fold change were considered. Over representation analysis for gene ontology and pathways on differentially expressed genes were performed using DAVID (6.8) 11 and ConsensusPathDB^12. Gene set enrichment analysis on log 2-fold change pre-ranked data was performed using GSEA software^13 and gene sets for biological hallmark processes and pathways (MSigDB), calcification signature as derived from respective literature, and signatures of differentially expressed genes for calcific aortic valve stenosis versus control^14 (reanalyzed data from GSE12644 using R package limma^15 including genes with more than two-fold change and FDR <0.05). Heat maps were generated using Genesis version 1.8.116 for log 2-fold change data.

[4] = test system: TLR3; assay: TLR3 expression in valvular interstitial cells (immunoblot / RT-qPCR); format: cell-based, human; settings: RT-qPCR; Poly(I:C) 2, 4, 6, 24 and 48 h (FIG. 4A)
Experimental: (§3) Valvular interstitial cells from patients undergoing aortic valve replacement or cardiac transplantation were isolated via collagen digestion as described previously^6. Valves were rinsed in EBSS and subsequently subjected to collagenase digestion (Sigma, St. Louis, MO; 2.5 mg/mL in M199) for 30 minutes at 37° C. Thereafter, tissue samples were vortexed and supernatant containing endothelial cells was removed. Again, collagenase was added to the remaining valve tissue (1 mg/mL) for 3 h at 37° C. For mechanical disintegration of the tissue, vortexing and repeated aspiration via a pipette was performed. The supernatant was transferred into a new tube and subjected to centrifugation (300 g for 8 minutes at 4° C.). Subsequently, cells were resuspended in M199 medium containing 10% fetal calve serum, penicillin, streptomycin, L-Glutamine and amphotericin B (2.5 mg/L).
(§4) All cells were cultivated under standard conditions (37° C., supplied with 5% CO2). Passaging of the cells was performed at 70-90% confluency, and cells were only used until passage 7 as described previously^6. […]
(§5) RT-PCR was performed as described previously^17. […] The result for the relative gene expression was calculated by the 2-DDCt method. Mean Ct values were calculated from double determinations and samples were considered negative if the Ct values exceeded 4017. […]

[5] = test system: IFN-β; assay: IFN-β expression in VICs (RT-qPCR); format: cell-based, human; settings: Poly(I:C) 2, 4, 6, 24 and 48 h (FIG. 4B)
Experimental: as §3, §4, §5

[6] = test system: TLR3 and IFN-β; assay: RT-PCR of human dermal fibroblasts (wild type, empty vector control, Tlr3−/− CRISPR); format: cell-based; settings: 5 μg/ml, 6 h
Excerpt: as §1, §2
RT-PCR was performed as described previously^17. Total RNA was extracted from homogenized tissue or cell lysates using the Total RNA Miniprep Kit (New England BioLabs, Frankfurt, Germany) according to the manufacturer's instructions. We performed the PCR reaction in a final volume of 12.5 μL containing 2.5 μL of cDNA, 6.25 μL of Master Mix, 1 μL of fluorogenic hybridization probe, 10 μM of primer and 2.75 μL of distilled water. […] The result for the relative gene expression was calculated by the 2-DDCt method. Mean Ct values were calculated from double determinations and samples were considered negative if the Ct values exceeded 4017. […]

## Polyinosinic: polycytidylic acid [Poly(I:C)]
[1]; Poly(I:C) 20 μg/mL or inhibitor 26 μM, Alizarin Red S
  calcification / production of calcific nodules: enhanced the production of calcific nodules
[1]; supernatant
  alkaline phosphatase (ALP) activity: increased the activity
[2]
  IFNAR1 level: upregulation of IFNAR1
  levels of osteoblastic transcription factor RUNX2: increased levels
  phosphorylation of IRF3: phosphorylation of IRF3
[3]
  transcriptome of treated VICs: induces an osteoblastic transcriptome
[3]; at least four-fold change
  genes downregulated in both Poly(I:C)-treated VICs and human osteoblasts compared to untreated VICs: 199 genes
  genes upregulated in both Poly(I:C)-treated VICs and human osteoblasts compared to untreated VICs: 118 genes
[4]
  TLR3 expression in VICs: increased expression
[5]
  IFN-β expression in VICs: increased expression
[6]; Tlr3−/− fibroblasts
  transcription of TLR3 and IFN-β: no response
[6]; wild type and empty vector control fibroblasts
  transcription of TLR3 and IFN-β: induced transcription of TLR3 and IFN-β
